Measured values published in ChEMBL document CHEMBL4619828, “Discovery of Potent and Orally Bioavailable Small Molecule Antagonists of Toll-like Receptors 7/8/9 (TLR7/8/9)” (ACS Med Chem Lett, 2020).

Key:
[1] = target: T1, Toll-like receptor 9 (Homo sapiens, UniProt Q9NR96); experiment: Antagonist activity at human TLR9 overexpressed in HEK-Blue cells assessed as inhibition of ODN2006-induced NFkappaB and AP-1 activation preincubated for 30 mins followed by ODN2006 stimulation measured after 22 hrs by quanti-blue SEAP assay; assay type: cell-based
T1 sequence (Q9NR96 whole entry): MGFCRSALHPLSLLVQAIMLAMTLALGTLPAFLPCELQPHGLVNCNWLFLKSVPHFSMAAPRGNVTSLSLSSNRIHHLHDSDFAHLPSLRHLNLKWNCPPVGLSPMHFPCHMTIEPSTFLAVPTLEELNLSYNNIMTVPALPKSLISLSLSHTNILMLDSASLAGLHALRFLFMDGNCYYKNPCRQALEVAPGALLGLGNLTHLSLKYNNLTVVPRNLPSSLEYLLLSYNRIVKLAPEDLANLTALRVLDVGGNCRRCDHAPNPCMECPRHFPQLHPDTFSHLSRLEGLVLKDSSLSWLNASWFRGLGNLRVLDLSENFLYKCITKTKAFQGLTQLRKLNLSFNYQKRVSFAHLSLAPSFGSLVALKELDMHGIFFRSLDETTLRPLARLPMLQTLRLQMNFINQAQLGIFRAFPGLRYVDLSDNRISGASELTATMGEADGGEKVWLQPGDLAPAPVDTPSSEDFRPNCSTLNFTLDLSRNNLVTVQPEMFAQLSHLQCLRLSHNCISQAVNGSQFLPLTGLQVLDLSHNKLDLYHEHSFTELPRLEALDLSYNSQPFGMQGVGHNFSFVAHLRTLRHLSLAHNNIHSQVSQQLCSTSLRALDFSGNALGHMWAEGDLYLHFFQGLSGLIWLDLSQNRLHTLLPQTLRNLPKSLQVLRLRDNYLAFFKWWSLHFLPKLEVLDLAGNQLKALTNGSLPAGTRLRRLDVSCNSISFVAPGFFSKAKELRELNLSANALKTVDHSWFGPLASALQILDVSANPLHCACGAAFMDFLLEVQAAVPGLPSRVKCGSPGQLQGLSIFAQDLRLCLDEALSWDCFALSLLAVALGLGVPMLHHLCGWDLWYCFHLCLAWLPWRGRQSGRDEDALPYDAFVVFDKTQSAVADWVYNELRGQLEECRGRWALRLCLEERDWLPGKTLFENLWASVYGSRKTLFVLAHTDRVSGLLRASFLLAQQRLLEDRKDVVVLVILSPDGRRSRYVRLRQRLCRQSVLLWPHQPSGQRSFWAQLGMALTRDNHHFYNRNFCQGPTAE

[2] = target: Toll-like receptor 4 (Homo sapiens, UniProt O00206); experiment: Antagonist activity at human TLR4 overexpressed in HEK-Blue cells assessed as inhibition of […] induced NFkappaB and AP-1 activation preincubated for 30 mins followed by […] stimulation measured after 22 hrs by quanti-blue SEAP assay; assay type: cell-based
[3] = target: T1, Toll-like receptor 9; experiment: Antagonist activity at TLR9 (unknown origin) in PBMC cells assessed as reduction of IL-6 production; assay type: cell-based
[4] = target: T1, Toll-like receptor 9; experiment: Antagonist activity at TLR9 in human pDC assessed as inhibition of ODN2216-induced IFN-alpha production incubated for 24 hrs measured by ELISA
[5] = target: T1, Toll-like receptor 9; experiment: Antagonist activity at TLR9 in human whole blood cells assessed as inhibition of ODN-2216 induced IL-6 production by ELISA; assay type: cell-based
[6] = target: T2, Toll-like receptor 7 (Mus musculus, UniProt P58681); experiment: Antagonist activity at TLR7 in mouse whole blood cells assessed as inhibition of gardiquimod induced IL-6 production by ELISA; assay type: cell-based
T2 sequence (P58681 whole entry): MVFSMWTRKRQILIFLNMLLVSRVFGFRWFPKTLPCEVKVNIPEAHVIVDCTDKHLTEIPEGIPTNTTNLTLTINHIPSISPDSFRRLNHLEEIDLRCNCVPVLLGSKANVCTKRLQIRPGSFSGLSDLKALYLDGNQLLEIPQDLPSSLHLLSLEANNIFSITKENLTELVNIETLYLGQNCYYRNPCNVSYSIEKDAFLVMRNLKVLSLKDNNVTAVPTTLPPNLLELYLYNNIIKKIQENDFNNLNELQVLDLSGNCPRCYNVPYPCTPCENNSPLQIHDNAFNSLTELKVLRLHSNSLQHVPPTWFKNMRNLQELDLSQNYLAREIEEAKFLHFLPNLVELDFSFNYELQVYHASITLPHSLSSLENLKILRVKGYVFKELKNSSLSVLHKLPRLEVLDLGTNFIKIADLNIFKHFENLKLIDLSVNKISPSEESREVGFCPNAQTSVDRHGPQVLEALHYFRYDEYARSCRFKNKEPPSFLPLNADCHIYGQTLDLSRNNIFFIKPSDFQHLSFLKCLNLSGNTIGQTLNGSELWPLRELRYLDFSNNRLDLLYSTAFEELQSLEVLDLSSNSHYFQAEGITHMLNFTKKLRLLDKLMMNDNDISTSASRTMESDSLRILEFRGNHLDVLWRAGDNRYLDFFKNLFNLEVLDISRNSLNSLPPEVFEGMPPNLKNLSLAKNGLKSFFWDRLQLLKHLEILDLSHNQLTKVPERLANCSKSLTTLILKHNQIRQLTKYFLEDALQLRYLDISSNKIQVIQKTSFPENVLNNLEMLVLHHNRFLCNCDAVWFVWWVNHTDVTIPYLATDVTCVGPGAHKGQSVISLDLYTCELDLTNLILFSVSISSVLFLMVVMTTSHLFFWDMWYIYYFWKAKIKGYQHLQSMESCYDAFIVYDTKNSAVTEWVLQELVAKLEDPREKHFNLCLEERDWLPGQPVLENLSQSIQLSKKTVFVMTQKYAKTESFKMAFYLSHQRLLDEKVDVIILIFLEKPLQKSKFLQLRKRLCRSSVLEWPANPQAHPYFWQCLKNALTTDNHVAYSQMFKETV

[7] = Tmax in mouse at 15 mg/kg, po; assay type: ADME, organism-based; conditions: in vivo
[8] = Volume of distribution in steady state in mouse at 3 mg/kg, iv; assay type: ADME, organism-based; conditions: in vivo, read-out: Vdss
[9] = Terminal half life in mouse at 3 mg/kg, iv; assay type: ADME, organism-based; conditions: in vivo, read-out: beta t1/2 (converted)
[10] = target: T2, Toll-like receptor 7; experiment: In vivo antagonist activity at TLR7 in po dosed C57BL/6 mouse assessed as reduction of gardiquimod-induced IL-6 production pretreated for 30 mins followed by gardiquimod-stimulation and measured after 120 mins by ELISA

Toll-like receptor 4, sequence (O00206 whole entry): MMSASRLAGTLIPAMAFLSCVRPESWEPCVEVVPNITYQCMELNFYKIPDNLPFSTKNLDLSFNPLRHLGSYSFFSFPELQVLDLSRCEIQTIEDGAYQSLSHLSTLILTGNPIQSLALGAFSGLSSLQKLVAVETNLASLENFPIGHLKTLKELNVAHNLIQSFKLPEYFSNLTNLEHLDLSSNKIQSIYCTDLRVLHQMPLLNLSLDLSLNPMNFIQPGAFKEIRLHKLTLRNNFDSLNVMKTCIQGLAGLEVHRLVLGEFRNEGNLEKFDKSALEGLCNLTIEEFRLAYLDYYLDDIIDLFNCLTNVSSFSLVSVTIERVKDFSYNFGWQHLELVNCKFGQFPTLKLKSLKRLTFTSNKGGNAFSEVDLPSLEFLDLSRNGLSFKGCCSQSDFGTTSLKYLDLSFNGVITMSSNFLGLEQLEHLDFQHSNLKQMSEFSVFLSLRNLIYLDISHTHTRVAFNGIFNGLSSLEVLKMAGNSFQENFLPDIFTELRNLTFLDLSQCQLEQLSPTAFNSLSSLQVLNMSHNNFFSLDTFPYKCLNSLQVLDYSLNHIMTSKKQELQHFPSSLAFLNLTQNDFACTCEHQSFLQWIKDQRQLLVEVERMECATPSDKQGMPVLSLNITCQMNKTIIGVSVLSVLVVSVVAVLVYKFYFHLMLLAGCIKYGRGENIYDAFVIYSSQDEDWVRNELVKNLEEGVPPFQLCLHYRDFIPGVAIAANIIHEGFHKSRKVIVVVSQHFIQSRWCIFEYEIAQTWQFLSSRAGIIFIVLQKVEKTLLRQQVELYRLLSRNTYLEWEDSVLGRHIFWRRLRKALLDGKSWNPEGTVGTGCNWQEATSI

IC50 [1]: 700 nM | IC50 [2]: 15100 nM | IC50 [3]: 510 nM | IC50 [4]: 210 nM | IC50 [5]: 320 nM | IC50 [6]: 43 nM | Tmax [7]: 0.5 h | Vd [8]: 20 L/kg | half-life [9]: 32 h | EC50 [10]: 2.4 nM
SMILES: CNCCN1CCC(c2ccc3[nH]c(-c4ccc(OC)c(OC)c4)c(C(C)C)c3c2)CC1
